{
  "source": "paper PMC9785397",
  "about": "“Exploiting Conserved Quorum Sensing Signals in Streptococcus mutans and Streptococcus pneumoniae” (Microorganisms, 2022)",
  "key": {"[1]": {"test_system": "S. mutans", "experiment": "microbe, parasite or virus in culture", "assay_type": "cell-based, Streptococcus mutans", "settings": "peptides 0–50 μM, 16 h, 37 °C, microaerophilic, A620 nm, three separate experiments", "description": "(§1) Streptococcus mutans Clarke (strain designation NCTC 10449), Pseudomonas aeruginosa (Schroeter) Migula (strain designation PAO1), Fusobacterium nucleatum, subspecies nucleatum (strain VPI 4355), and Porphyromonas gingivalis (strain 2561) were purchased from ATCC (LGC Standards Srl, Milan, Italy). Streptococcus mitis, Streptococcus oralis, and Streptococcus sanguinis were obtained from clinical isolates and characterized by morphological, biochemical, and molecular typing. S. mutans, S. mitis, S. oralis, and S. sanguinis were maintained in Brain Heart Infusion (BHI) broth or agar under microaerophilic conditions. P. aeruginosa was maintained in trypticase soy (TS) agar or broth. F. nucleatum was maintained in TS agar or broth with defibrinated sheep blood under anaerobic conditions. P. gingivalis was maintained in ATCC Medium 2722 supplemented with TS broth or agar under anaerobic conditions. Before the experiments, bacterial cultures were inoculated in fresh media (dilution 1:100) and grown for 16 h at 37 °C.\n(§2) The antimicrobial activities of the tested peptides were assessed through the determination of the minimum inhibitory concentration (MIC) standardized by the Clinical and Laboratory Standards Institute. Bacterial inocula were diluted in 10 mL of MHB […]. The concentration of the bacteria was adjusted to 0.5 McFarland standard, and the bacteria were dispensed in 96-well microtiter plates (final bacterial concentration: 1 × 10^4 CFU/well). Peptides were dissolved in sterile water (stock concentration: 2 mM) and added at final concentrations ranging from 0 to 50 µM. Plates were incubated at 37 °C for 16 h. At the end of incubation, bacterial growth was recorded using a microplate reader (Varioskan Lux Reader; Thermo Fisher Scientific, Milan, Italy) by quantifying the adsorption at 620 nm. Cultures were then opportunely diluted and seeded on agar plates. Bacterial cultures inoculated with the highest final concentration of the vehicle (sterile water) or chlorhexidine hydrochloride salt (CHX, concentration range: 0.05 to 500 μg/mL; Merck, Milan, Italy) were included as controls in each test. Experiments were performed in triplicate."}, "[2]": {"test_system": "P. aeruginosa", "experiment": "microbe, parasite or virus in culture", "assay_type": "cell-based, Pseudomonas aeruginosa", "settings": "peptides 0–50 μM, 16 h, 37 °C, aerobic, A620 nm, three separate experiments", "description": "as §1, §2"}, "[3]": {"test_system": "P. gingivalis", "experiment": "microbe, parasite or virus in culture", "assay_type": "cell-based, Porphyromonas gingivalis", "settings": "peptides 0–50 μM, 16 h, 37 °C, anaerobic, A620 nm, three separate experiments", "description": "as §1, §2"}, "[4]": {"test_system": "S. mutans", "experiment": "Bacterial growth kinetics", "assay_type": "cell-based, Streptococcus mutans", "procedure": "Peptides were further evaluated for their potential effect in altering the growth kinetics in S. mutans. Overnight bacterial cultures were collected, centrifuged, and suspended in fresh BHI broth at 10^8 CFU/mL. Bacteria were dispensed in sterile 96-well microtiter plates at a final concentration of 1 × 10^6 CFU/100 µL and cultured with peptides or the vehicle at 37 °C for 36 h. Bacterial growth kinetics were monitored by measuring the optical density at 620 nm at different time points using Varioskan Lux Reader (Thermo Fisher Scientific)."}, "[5]": {"test_system": "S. mutans bacteriocin production against P. gingivalis", "experiment": "Bacteriocin overlay assay, S. mutans spotted on P. gingivalis", "assay_type": "cell-based, Streptococcus mutans", "settings": "CSP1 20 μM, 16 h, anaerobic", "procedure": "During the formation of complex biofilm such as dental plaque, the ability of S. mutans to compete with other commensal species determines the success of the cariogenesis process. S. mutans uses antibacterial peptides, namely, bacteriocins, to overcome and subvert the composition of dental microbiota. We investigated the production of bacteriocins using the overlay assay. Overnight cultures of S. mitis, S. oralis, S. sanguinis, P. aeruginosa, F. nucleatum, or P. gingivalis were diluted 1:100 in BHI or TS broth and incubated at 37 °C until they reached an OD620 of 0.3. Cultures were added with agar (BD Difco^TM Agar) at the final concentration of 1.5% w/v and transferred in plates. Overnight cultures of S. mutans were diluted 1:100 in BHI and added with peptides (20 μM) or the vehicle with or without CSP1. Culture media were supplemented with agar to reach the final concentration of 0.7% w/v. The solutions were spotted on the surface of agar plates prepared as described above. […]\nSpots (10 for each experimental group) were acquired and analyzed using NIH Image J software (version 1.53t August 2022, https://imagej.nih.gov/ij/index.html; accessed on 7 September 2022). The appearance of a clear area on the plate (bacterial growth inhibition) was evaluated as indicative of bacteriocin activity. The diameters of the area were measured in a blinded fashion."}, "[6]": {"test_system": "vicK gene", "experiment": "qRT-PCR, vicK gene expression in biofilm", "assay_type": "cell-based, Streptococcus mutans", "settings": "CSP1 20 μM vs vehicle, 16 h, qPCR", "procedure": "S. mutans was cultured in BHI supplemented with peptides or the vehicle. Cultures were centrifuged, and total RNA was isolated and purified from the bacterial pellets using the GRS Total RNA Kit—Bacteria (GK16.0100; GRISP Research Solution, Porto, Portugal), following the manufacturer’s instructions. Purified RNA was subjected to DNase I treatment to remove contaminating DNA. The RNA yield and purity were assessed by measuring the absorbance, and only samples with a ratio of 260/280 nm in the 1.8–2 range were used. cDNA was generated using the cDNA RT kit with an RNAse inhibitor (Applied Biosystems; Monza, Milan). Quantitative PCR (qRT-PCR) was performed using SYBR green mixture (iScript One Step RT-PCR kit; Bio-Rad, Segrate, Milan) to determine the transcript levels of genes using the oligonucleotides listed in Table 3. The gyrA gene served as the housekeeping gene."}},
  "data": [
    {"smiles": "CC[C@H](C)[C@H](NC(=O)[C@H](Cc1ccccc1)NC(=O)[C@H](CC(=O)O)NC(=O)[C@H](CCCNC(=N)N)NC(=O)[C@H](Cc1ccccc1)NC(=O)[C@H](Cc1ccccc1)NC(=O)[C@H](CCCCN)NC(=O)[C@H](CO)NC(=O)[C@H](CC(C)C)NC(=O)[C@H](CCCNC(=N)N)NC(=O)[C@H](CCSC)NC(=O)[C@@H](N)CCC(=O)O)C(=O)N[C@@H](CC(C)C)C(=O)N[C@@H](CCC(N)=O)C(=O)N[C@@H](CCCNC(=N)N)C(=O)N[C@@H](CCCCN)C(=O)N[C@@H](CCCCN)C(=O)O", "note": "[CSP1]", "values": [
      {"measurement": "Minimum inhibitory concentration (MIC), S. mutans", "setting": "[1]", "result": 30, "unit": "µM"},
      {"measurement": "Minimum inhibitory concentration (MIC), P. aeruginosa", "setting": "[2]", "result": ">50", "unit": "µM"},
      {"measurement": "Minimum inhibitory concentration (MIC), P. gingivalis", "setting": "[3]", "result": ">50", "unit": "µM"},
      {"measurement": "Effect on the growth (growth kinetics) of S. mutans", "setting": "[4]; 20 µM peptide, BHI broth, 37 °C, monitored 36 h, A620 nm, three experiments", "result": "no significant effects"},
      {"measurement": "Colony counting of S. mutans after incubation with the peptide", "setting": "[4]; 20 µM, data not shown", "result": "not affected"},
      {"measurement": "Growth inhibition of P. gingivalis by S. mutans stimulated with peptide", "setting": "[5]", "result": "no effects"},
      {"measurement": "Expression of vicK in S. mutans biofilm", "setting": "[6]", "result": "significantly increased"}
    ]}
  ]
}
